Measured values as given in patent US9149480B2, “Use of meloxicam for the long-term treatment of musculoskeletal disorders in cats” (Boehringer Ingeleheim Vetmedica GmbH, priority 2010, dated 2015).

Test system: cats
Experiment: Retrospective study of long-term meloxicam treatment in aged cats with osteoarthritis: progression of renal disease versus matched untreated controls
Type: in vivo, cat
Conditions: for progression of renal disease: maintenance dose of 0.02 mg/kg; for progression of renal parameters: median maintenance dose 0.02 mg/kg daily; for loss of urine concentrating ability / weight loss: time adjusted AUC change from baseline, Wilcoxon rank-sum-test
Excerpt: The medical records of a feline-only practice were searched for cats with OA being treated with meloxicam during a 4 year period. A diagnosis of OA was based upon any two of the following: owner noted mobility changes and/or physical examination findings or radiographic changes. Cats included were older than 7 years and treated with meloxicam for a duration of more than 6 months. Complete medical records were available for review. Biochemistry, urinalysis and body weight were regularly monitored. The progression of renal disease in the aged non-renal and renal group treated was compared to age matched and IRIS matched untreated controls from the same clinic.
The database of a feline-only practice in suburban Melbourne was searched for cats which had been treated for chronic musculoskeletal disorders with meloxicam (Metacam oral suspension, Boehringer Ingelheim) during a 4 year period. The diagnosis of osteoarthritis or spondylosis deformans had been made based upon any two of the following: owner noted mobility changes, physical examination findings or radiographic changes. The inclusion criteria included cats greater than 7 years old which had been treated continuously with meloxicam for a duration of more than 6 months and which had complete medical records available for review. In addition, cats were only included if serum biochemistry, urine analysis and body weight had been regularly monitored.
Young cats were excluded, as were cats with no pre-treatment renal parameter measurements. In addition cats were also excluded if the owner could not be contacted to check that the cats were still receiving daily treatment with meloxicam.
Age, breed, sex, concomitant diseases and medications as well as date treatment commenced, treatment duration and daily dose of meloxicam were recorded.
The presence or absence of pre-treatment renal disease and staging of the renal disease was carried out using plasma creatinine and urine specific gravity according to the following recognised International Renal Interest Society criteria (IRIS staging 2006):
The treated cats were then subdivided into two groups: the renal treated group that belonged to IRIS stage 1-3 and were pre-treated, and the non-renal treated group that has no identifiable renal disease pre-treatment. Urine specific gravity, serum creatinine and bodyweight were used as indicators of renal disease progression. The progression of renal disease was then compared to age and IRIS matched untreated controls were then randomly identified from the database of the same clinic.
The median age of the renal and non-renal treated cats, median treatment duration and median maintenance dose was calculated.
The progression of renal disease in the non-renal treated group was compared to the age matched untreated controls. The progression of renal disease in the treated renal-diseased group was compared to age matched and IRIS matched untreated controls from the same clinic. Statistical analysis was carried out using a time adjusted area-under-the-curve (AUC) changes from baseline time 0 until the last recorded value (n).
The Wilcoxon rank-sum-test was used to compare the groups. With this nonparametric test the distribution of the adjusted AUC of two groups was compared regarding the location. Under the null hypothesis it is assumed that there is no location shift in the distributions of the two treatment groups. If the resulting p-value is lower than the two-sided significance level of 5% the null hypothesis is rejected.

[1] = non-renal group treated with meloxicam vs non-renal group not treated
[2] = renal group treated with meloxicam vs age and IRIS matched untreated renal group

Compound: Cc1cnc(NC(=O)C2=C(O)c3ccccc3S(=O)(=O)N2C)s1 [meloxicam]
- progression of renal disease (aged cats with pre-existent stable IRIS stage 1-3 renal disease): does not hasten progression of renal disease
- progression of renal disease (aged cats): does not hasten progression of renal disease
- median maintenance dose after dose titration to the lowest effective dose (daily, oral suspension, both the renal treated and non-renal treated groups): 0.02 mg/kg
- progression of renal parameters (non-renal group treated with meloxicam vs non-renal group not treated, median treatment duration 400 days): no differences
- loss of urine concentrating ability [1]: no statistically significant differences
- weight loss [1]: no statistically significant differences
- progression of renal parameters (renal group (IRIS stage 1-3) treated with meloxicam vs age and IRIS matched untreated renal group, median treatment duration 527 days): no differences
- loss of urine concentrating ability [2]: no statistically significant differences
- weight loss [2]: no statistically significant differences
- mean serum creatinine concentration increase over time (renal group treated with meloxicam vs renal untreated group): increased statistically significantly less
